# Measurements taken from publication PMC6009879, “Open saccharin-based secondary sulfonamides as potent and selective inhibitors of cancer-related carbonic anhydrase IX and XII isoforms” (Journal of Enzyme Inhibition and Medicinal Chemistry, 2016).
# Biological target: T1, hCA II (Homo sapiens, UniProt P00918)
# T1 construct: made in house
# Experiment: stopped-flow CO2 hydrase assay, hCA II
# Format: biochemical
# Settings: recombinant hCA II; mean from 3 different assays, errors ±5–10%
# Experimental: (§1) An applied photophysics stopped-flow instrument has been used for assaying the CA-catalyzed CO2 hydration activity. Phenol red (0.2 mM) has been used as indicator, working at the absorbance maximum of 557 nm, with 20 mM Hepes (pH 7.5, for α-CAs) as buffer, and 20 mM NaClO4 (for maintaining constant the ionic strength), following the initial rates of the CA-catalyzed CO2 hydration reaction for a period of 10–100 s. The CO2 concentrations ranged from 1.7 to 17 mM for the determination of the kinetic parameters and inhibition constants. […] The uncatalyzed rates were determined in the same manner and subtracted from the total observed rates. Stock solutions of each inhibitor (1 µM) were prepared in distilled-deionized water and dilutions up to 0.1 nM were done thereafter with the assay buffer. […] The inhibition constants were obtained by non-linear least-squares methods using PRISM 3 and the Cheng–Prusoff equation, and represent the average from at least three different determinations. All recombinant CA isoforms were obtained in-house as previously reported[38]^,[39].
row,Structure (SMILES),Ki [nM]
1,"O=S(=O)(NCc1ccc(Cl)c(Cl)c1)c1ccccc1CO [Compound 18, N-(3,4-dichlorobenzyl)-2-(hydroxymethyl)benzenesulfonamide]",> 10000
2,"O=[N+]([O-])c1ccc(CNS(=O)(=O)c2ccccc2CO)cc1 [Compound 13, 2-(Hydroxymethyl)-N-(4-nitrobenzyl)benzenesulfonamide]",> 10000
3,"O=S(=O)(NCC(O)c1ccccc1)c1ccccc1CO (stereo not drawn) [Compound 20, N-(2-hydroxy-2-phenylethyl)-2-(hydroxymethyl)benzenesulfonamide]",> 10000
4,"Cc1ccccc1CNS(=O)(=O)c1ccccc1CO [Compound 1, 2-(Hydroxymethyl)-N-(2-methylbenzyl)benzenesulfonamide]",> 10000
5,"O=S(=O)(NCc1cccc(C(F)(F)F)c1)c1ccccc1CO [Compound 6, 2-(Hydroxymethyl)-N-(3-(trifluoromethyl)benzyl)benzenesulfonamide]",> 10000
6,"O=S(=O)(NCc1ccccc1C(F)(F)F)c1ccccc1CO [Compound 2, 2-(Hydroxymethyl)-N-(2-(trifluoromethyl)benzyl)benzenesulfonamide]",> 10000
7,"COc1cccc(C(O)CNS(=O)(=O)c2ccccc2CO)c1 (stereo not drawn) [Compound 21, N-(2-hydroxy-2-(3-methoxyphenyl)ethyl)-2-(hydroxymethyl)benzenesulfonamide]",> 10000
8,"O=[N+]([O-])c1ccccc1CNS(=O)(=O)c1ccccc1CO [Compound 3, 2-(Hydroxymethyl)-N-(2-nitrobenzyl)benzenesulfonamide]",> 10000
9,"O=S(=O)(NCc1ccc(Cl)cc1)c1ccccc1CO [Compound 15, N-(4-chlorobenzyl)-2-(hydroxymethyl)benzenesulfonamide]",> 10000
10,"O=S(=O)(NCc1cccc2ccccc12)c1ccccc1CO [Compound 19, 2-(Hydroxymethyl)-N-(naphthalen-1-ylmethyl)benzenesulfonamide]",> 10000
11,"O=[N+]([O-])c1cccc(CNS(=O)(=O)c2ccccc2CO)c1 [Compound 7, 2-(Hydroxymethyl)-N-(3-nitrobenzyl)benzenesulfonamide]",> 10000
12,"O=S(=O)(NCc1ccc(Br)cc1)c1ccccc1CO [Compound 16, N-(4-bromobenzyl)-2-(hydroxymethyl)benzenesulfonamide]",> 10000
13,"O=S(=O)(NCc1cccc(Br)c1)c1ccccc1CO [Compound 9, N-(3-bromobenzyl)-2-(hydroxymethyl)-benzenesulfonamide]",> 10000
14,"O=S(=O)(NCc1ccccc1Br)c1ccccc1CO [Compound 4, N-(2-bromobenzyl)-2-(hydroxymethyl)benzenesulfonamide]",> 10000
15,"O=S(=O)(NCc1ccc(C(F)(F)F)cc1)c1ccccc1CO [Compound 11, 2-(Hydroxymethyl)-N-(4-(trifluoromethyl)benzyl)benzenesulfonamide]",> 10000
16,"O=S(=O)(NCc1ccc(F)cc1)c1ccccc1CO [Compound 14, N-(4-fluorobenzyl)-2-(hydroxymethyl)benzenesulfonamide]",> 10000
17,"O=S(=O)(NCc1cccc(F)c1)c1ccccc1CO [Compound 8, N-(3-fluorobenzyl)-2-(hydroxymethyl)benzenesulfonamide]",> 10000
18,"Cc1cccc(CNS(=O)(=O)c2ccccc2CO)c1 [Compound 5, 2-(Hydroxymethyl)-N-(3-methylbenzyl)benzenesulfonamide]",> 10000
19,"N#Cc1ccc(CNS(=O)(=O)c2ccccc2CO)cc1 [Compound 12, N-(4-cyanobenzyl)-2-(hydroxymethyl)benzenesulfonamide]",> 10000
20,"O=S(=O)(NCc1c(F)cccc1F)c1ccccc1CO [Compound 17, N-(2,6-difluorobenzyl)-2-(hydroxymethyl)benzenesulfonamide]",> 10000
21,"Cc1ccc(CNS(=O)(=O)c2ccccc2CO)cc1 [Compound 10, 2-(Hydroxymethyl)-N-(4-methylbenzyl)benzenesulfonamide]",> 10000

# Biological target: T2, hCA XII (Homo sapiens, UniProt O43570)
# T2 construct: made in house
# Experiment: stopped-flow CO2 hydrase assay, hCA XII
# Format: biochemical
# Settings: recombinant hCA XII; mean from 3 different assays, errors ±5–10%
# Experimental: as §1
# T2 sequence (O43570 25-354): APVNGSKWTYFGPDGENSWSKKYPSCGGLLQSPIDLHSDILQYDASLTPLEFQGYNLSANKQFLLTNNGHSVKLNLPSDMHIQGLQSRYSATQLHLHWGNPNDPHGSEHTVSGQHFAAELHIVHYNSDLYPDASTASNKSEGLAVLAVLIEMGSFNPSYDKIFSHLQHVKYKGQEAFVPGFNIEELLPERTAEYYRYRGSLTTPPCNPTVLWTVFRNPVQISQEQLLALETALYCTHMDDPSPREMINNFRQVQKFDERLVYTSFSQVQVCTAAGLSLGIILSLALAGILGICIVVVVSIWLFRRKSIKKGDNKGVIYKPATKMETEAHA
row,Structure (SMILES),Ki [nM]
1,"O=S(=O)(NCc1ccc(Cl)c(Cl)c1)c1ccccc1CO [Compound 18, N-(3,4-dichlorobenzyl)-2-(hydroxymethyl)benzenesulfonamide]",40
2,"O=[N+]([O-])c1ccc(CNS(=O)(=O)c2ccccc2CO)cc1 [Compound 13, 2-(Hydroxymethyl)-N-(4-nitrobenzyl)benzenesulfonamide]",54
3,"O=S(=O)(NCC(O)c1ccccc1)c1ccccc1CO (stereo not drawn) [Compound 20, N-(2-hydroxy-2-phenylethyl)-2-(hydroxymethyl)benzenesulfonamide]",64
4,"Cc1ccccc1CNS(=O)(=O)c1ccccc1CO [Compound 1, 2-(Hydroxymethyl)-N-(2-methylbenzyl)benzenesulfonamide]",4.6
5,"O=S(=O)(NCc1cccc(C(F)(F)F)c1)c1ccccc1CO [Compound 6, 2-(Hydroxymethyl)-N-(3-(trifluoromethyl)benzyl)benzenesulfonamide]",4.4
6,"O=S(=O)(NCc1ccccc1C(F)(F)F)c1ccccc1CO [Compound 2, 2-(Hydroxymethyl)-N-(2-(trifluoromethyl)benzyl)benzenesulfonamide]",54
7,"COc1cccc(C(O)CNS(=O)(=O)c2ccccc2CO)c1 (stereo not drawn) [Compound 21, N-(2-hydroxy-2-(3-methoxyphenyl)ethyl)-2-(hydroxymethyl)benzenesulfonamide]",355
8,"O=[N+]([O-])c1ccccc1CNS(=O)(=O)c1ccccc1CO [Compound 3, 2-(Hydroxymethyl)-N-(2-nitrobenzyl)benzenesulfonamide]",383
9,"O=S(=O)(NCc1ccc(Cl)cc1)c1ccccc1CO [Compound 15, N-(4-chlorobenzyl)-2-(hydroxymethyl)benzenesulfonamide]",48
10,"O=S(=O)(NCc1cccc2ccccc12)c1ccccc1CO [Compound 19, 2-(Hydroxymethyl)-N-(naphthalen-1-ylmethyl)benzenesulfonamide]",345
11,"O=[N+]([O-])c1cccc(CNS(=O)(=O)c2ccccc2CO)c1 [Compound 7, 2-(Hydroxymethyl)-N-(3-nitrobenzyl)benzenesulfonamide]",382
12,"O=S(=O)(NCc1ccc(Br)cc1)c1ccccc1CO [Compound 16, N-(4-bromobenzyl)-2-(hydroxymethyl)benzenesulfonamide]",432
13,"O=S(=O)(NCc1cccc(Br)c1)c1ccccc1CO [Compound 9, N-(3-bromobenzyl)-2-(hydroxymethyl)-benzenesulfonamide]",64
14,"O=S(=O)(NCc1ccccc1Br)c1ccccc1CO [Compound 4, N-(2-bromobenzyl)-2-(hydroxymethyl)benzenesulfonamide]",323
15,"O=S(=O)(NCc1ccc(C(F)(F)F)cc1)c1ccccc1CO [Compound 11, 2-(Hydroxymethyl)-N-(4-(trifluoromethyl)benzyl)benzenesulfonamide]",7.2
16,"O=S(=O)(NCc1ccc(F)cc1)c1ccccc1CO [Compound 14, N-(4-fluorobenzyl)-2-(hydroxymethyl)benzenesulfonamide]",63
17,"O=S(=O)(NCc1cccc(F)c1)c1ccccc1CO [Compound 8, N-(3-fluorobenzyl)-2-(hydroxymethyl)benzenesulfonamide]",247
18,"Cc1cccc(CNS(=O)(=O)c2ccccc2CO)c1 [Compound 5, 2-(Hydroxymethyl)-N-(3-methylbenzyl)benzenesulfonamide]",4.3
19,"N#Cc1ccc(CNS(=O)(=O)c2ccccc2CO)cc1 [Compound 12, N-(4-cyanobenzyl)-2-(hydroxymethyl)benzenesulfonamide]",57
20,"O=S(=O)(NCc1c(F)cccc1F)c1ccccc1CO [Compound 17, N-(2,6-difluorobenzyl)-2-(hydroxymethyl)benzenesulfonamide]",45
21,"Cc1ccc(CNS(=O)(=O)c2ccccc2CO)cc1 [Compound 10, 2-(Hydroxymethyl)-N-(4-methylbenzyl)benzenesulfonamide]",5.7

# Biological target: T3, hCA I (Homo sapiens, UniProt P00915)
# T3 construct: made in house
# Experiment: stopped-flow CO2 hydrase assay, hCA I
# Format: biochemical
# Settings: recombinant hCA I; mean from 3 different assays, errors ±5–10%
# Experimental: as §1
# T3 sequence (P00915 whole entry): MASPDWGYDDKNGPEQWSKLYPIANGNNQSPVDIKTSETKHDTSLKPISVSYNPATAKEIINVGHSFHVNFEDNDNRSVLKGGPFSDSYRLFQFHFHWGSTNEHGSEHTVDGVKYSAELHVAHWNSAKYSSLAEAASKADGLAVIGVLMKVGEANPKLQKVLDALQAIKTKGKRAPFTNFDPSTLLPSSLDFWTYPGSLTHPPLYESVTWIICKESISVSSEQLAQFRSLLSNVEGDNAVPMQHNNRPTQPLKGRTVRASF
row,Structure (SMILES),Ki [nM]
1,"O=S(=O)(NCc1ccc(Cl)c(Cl)c1)c1ccccc1CO [Compound 18, N-(3,4-dichlorobenzyl)-2-(hydroxymethyl)benzenesulfonamide]",> 10000
2,"O=[N+]([O-])c1ccc(CNS(=O)(=O)c2ccccc2CO)cc1 [Compound 13, 2-(Hydroxymethyl)-N-(4-nitrobenzyl)benzenesulfonamide]",> 10000
3,"O=S(=O)(NCC(O)c1ccccc1)c1ccccc1CO (stereo not drawn) [Compound 20, N-(2-hydroxy-2-phenylethyl)-2-(hydroxymethyl)benzenesulfonamide]",> 10000
4,"Cc1ccccc1CNS(=O)(=O)c1ccccc1CO [Compound 1, 2-(Hydroxymethyl)-N-(2-methylbenzyl)benzenesulfonamide]",> 10000
5,"O=S(=O)(NCc1cccc(C(F)(F)F)c1)c1ccccc1CO [Compound 6, 2-(Hydroxymethyl)-N-(3-(trifluoromethyl)benzyl)benzenesulfonamide]",> 10000
6,"O=S(=O)(NCc1ccccc1C(F)(F)F)c1ccccc1CO [Compound 2, 2-(Hydroxymethyl)-N-(2-(trifluoromethyl)benzyl)benzenesulfonamide]",> 10000
7,"COc1cccc(C(O)CNS(=O)(=O)c2ccccc2CO)c1 (stereo not drawn) [Compound 21, N-(2-hydroxy-2-(3-methoxyphenyl)ethyl)-2-(hydroxymethyl)benzenesulfonamide]",> 10000
8,"O=[N+]([O-])c1ccccc1CNS(=O)(=O)c1ccccc1CO [Compound 3, 2-(Hydroxymethyl)-N-(2-nitrobenzyl)benzenesulfonamide]",> 10000
9,"O=S(=O)(NCc1ccc(Cl)cc1)c1ccccc1CO [Compound 15, N-(4-chlorobenzyl)-2-(hydroxymethyl)benzenesulfonamide]",> 10000
10,"O=S(=O)(NCc1cccc2ccccc12)c1ccccc1CO [Compound 19, 2-(Hydroxymethyl)-N-(naphthalen-1-ylmethyl)benzenesulfonamide]",> 10000
11,"O=[N+]([O-])c1cccc(CNS(=O)(=O)c2ccccc2CO)c1 [Compound 7, 2-(Hydroxymethyl)-N-(3-nitrobenzyl)benzenesulfonamide]",> 10000
12,"O=S(=O)(NCc1ccc(Br)cc1)c1ccccc1CO [Compound 16, N-(4-bromobenzyl)-2-(hydroxymethyl)benzenesulfonamide]",> 10000
13,"O=S(=O)(NCc1cccc(Br)c1)c1ccccc1CO [Compound 9, N-(3-bromobenzyl)-2-(hydroxymethyl)-benzenesulfonamide]",> 10000
14,"O=S(=O)(NCc1ccccc1Br)c1ccccc1CO [Compound 4, N-(2-bromobenzyl)-2-(hydroxymethyl)benzenesulfonamide]",> 10000
15,"O=S(=O)(NCc1ccc(C(F)(F)F)cc1)c1ccccc1CO [Compound 11, 2-(Hydroxymethyl)-N-(4-(trifluoromethyl)benzyl)benzenesulfonamide]",> 10000
16,"O=S(=O)(NCc1ccc(F)cc1)c1ccccc1CO [Compound 14, N-(4-fluorobenzyl)-2-(hydroxymethyl)benzenesulfonamide]",> 10000
17,"O=S(=O)(NCc1cccc(F)c1)c1ccccc1CO [Compound 8, N-(3-fluorobenzyl)-2-(hydroxymethyl)benzenesulfonamide]",> 10000
18,"Cc1cccc(CNS(=O)(=O)c2ccccc2CO)c1 [Compound 5, 2-(Hydroxymethyl)-N-(3-methylbenzyl)benzenesulfonamide]",> 10000
19,"N#Cc1ccc(CNS(=O)(=O)c2ccccc2CO)cc1 [Compound 12, N-(4-cyanobenzyl)-2-(hydroxymethyl)benzenesulfonamide]",> 10000
20,"O=S(=O)(NCc1c(F)cccc1F)c1ccccc1CO [Compound 17, N-(2,6-difluorobenzyl)-2-(hydroxymethyl)benzenesulfonamide]",> 10000
21,"Cc1ccc(CNS(=O)(=O)c2ccccc2CO)cc1 [Compound 10, 2-(Hydroxymethyl)-N-(4-methylbenzyl)benzenesulfonamide]",> 10000

# Biological target: T4, hCA IX (Homo sapiens, UniProt Q16790)
# T4 construct: made in house
# Experiment: stopped-flow CO2 hydrase assay, hCA IX
# Format: biochemical
# Settings: recombinant hCA IX; mean from 3 different assays, errors ±5–10%
# Experimental: as §1
row,Structure (SMILES),Ki [nM]
1,"O=S(=O)(NCc1ccc(Cl)c(Cl)c1)c1ccccc1CO [Compound 18, N-(3,4-dichlorobenzyl)-2-(hydroxymethyl)benzenesulfonamide]",298
2,"O=[N+]([O-])c1ccc(CNS(=O)(=O)c2ccccc2CO)cc1 [Compound 13, 2-(Hydroxymethyl)-N-(4-nitrobenzyl)benzenesulfonamide]",20
3,"O=S(=O)(NCC(O)c1ccccc1)c1ccccc1CO (stereo not drawn) [Compound 20, N-(2-hydroxy-2-phenylethyl)-2-(hydroxymethyl)benzenesulfonamide]",224
4,"Cc1ccccc1CNS(=O)(=O)c1ccccc1CO [Compound 1, 2-(Hydroxymethyl)-N-(2-methylbenzyl)benzenesulfonamide]",218
5,"O=S(=O)(NCc1cccc(C(F)(F)F)c1)c1ccccc1CO [Compound 6, 2-(Hydroxymethyl)-N-(3-(trifluoromethyl)benzyl)benzenesulfonamide]",238
6,"O=S(=O)(NCc1ccccc1C(F)(F)F)c1ccccc1CO [Compound 2, 2-(Hydroxymethyl)-N-(2-(trifluoromethyl)benzyl)benzenesulfonamide]",200
7,"COc1cccc(C(O)CNS(=O)(=O)c2ccccc2CO)c1 (stereo not drawn) [Compound 21, N-(2-hydroxy-2-(3-methoxyphenyl)ethyl)-2-(hydroxymethyl)benzenesulfonamide]",31
8,"O=[N+]([O-])c1ccccc1CNS(=O)(=O)c1ccccc1CO [Compound 3, 2-(Hydroxymethyl)-N-(2-nitrobenzyl)benzenesulfonamide]",104
9,"O=S(=O)(NCc1ccc(Cl)cc1)c1ccccc1CO [Compound 15, N-(4-chlorobenzyl)-2-(hydroxymethyl)benzenesulfonamide]",154
10,"O=S(=O)(NCc1cccc2ccccc12)c1ccccc1CO [Compound 19, 2-(Hydroxymethyl)-N-(naphthalen-1-ylmethyl)benzenesulfonamide]",294
11,"O=[N+]([O-])c1cccc(CNS(=O)(=O)c2ccccc2CO)c1 [Compound 7, 2-(Hydroxymethyl)-N-(3-nitrobenzyl)benzenesulfonamide]",176
12,"O=S(=O)(NCc1ccc(Br)cc1)c1ccccc1CO [Compound 16, N-(4-bromobenzyl)-2-(hydroxymethyl)benzenesulfonamide]",145
13,"O=S(=O)(NCc1cccc(Br)c1)c1ccccc1CO [Compound 9, N-(3-bromobenzyl)-2-(hydroxymethyl)-benzenesulfonamide]",267
14,"O=S(=O)(NCc1ccccc1Br)c1ccccc1CO [Compound 4, N-(2-bromobenzyl)-2-(hydroxymethyl)benzenesulfonamide]",113
15,"O=S(=O)(NCc1ccc(C(F)(F)F)cc1)c1ccccc1CO [Compound 11, 2-(Hydroxymethyl)-N-(4-(trifluoromethyl)benzyl)benzenesulfonamide]",253
16,"O=S(=O)(NCc1ccc(F)cc1)c1ccccc1CO [Compound 14, N-(4-fluorobenzyl)-2-(hydroxymethyl)benzenesulfonamide]",26
17,"O=S(=O)(NCc1cccc(F)c1)c1ccccc1CO [Compound 8, N-(3-fluorobenzyl)-2-(hydroxymethyl)benzenesulfonamide]",268
18,"Cc1cccc(CNS(=O)(=O)c2ccccc2CO)c1 [Compound 5, 2-(Hydroxymethyl)-N-(3-methylbenzyl)benzenesulfonamide]",223
19,"N#Cc1ccc(CNS(=O)(=O)c2ccccc2CO)cc1 [Compound 12, N-(4-cyanobenzyl)-2-(hydroxymethyl)benzenesulfonamide]",126
20,"O=S(=O)(NCc1c(F)cccc1F)c1ccccc1CO [Compound 17, N-(2,6-difluorobenzyl)-2-(hydroxymethyl)benzenesulfonamide]",296
21,"Cc1ccc(CNS(=O)(=O)c2ccccc2CO)cc1 [Compound 10, 2-(Hydroxymethyl)-N-(4-methylbenzyl)benzenesulfonamide]",120
